Test results published in patent US11986485B1, “Compositions and methods for treating epilepsy” (POVIVA CORP, priority 2023, dated 2024).
Entries after “also recorded” stand apart in the source; their conditions may differ.

Assay: Hepatic markers (ALT, AST, ALP, GGT, total bilirubin) during 5-week administration
Assay type: in vivo, humans
Experimental: The study protocol was registered at the ClinicalTrials.gov (accessed on 7 Apr. 2022) (NCT05346562). […] Following a two-week washout, participants then repeated testing for another five weeks under different conditions. Participants visited the laboratory on 6 occasions in total (3 in each study arm), each time following an overnight fast. The complete course of the study was performed at the Department for Integrative Physiology, University of Split School of Medicine, Split, Croatia. The study design, implementation, and reporting followed the CONSORT guidelines, including the 25-item checklist and a flow diagram. The study was conducted according to the guidelines of the Declaration of Helsinki and was approved by the Ethics Committee of University of Split School of Medicine on 15 Dec. 2021 (Class: 003-08/21-03/0003; Reg. No.: 2181-198-03-04-21-0091). Prior to enrollment in the study, every participant was informed about the procedures, course, and purpose of the research and each of them individually signed an informed written consent.
Each patient visited the laboratory 6 times in total. During each visit, a sample of venous blood was taken from forearm following an overnight fast and sample of urine was obtained. All blood and urine samples were analyzed in the same certified institutional biochemical laboratory, using the standard operating procedures.
Hepatic (ALT, AST, ALP, GGT, and total bilirubin) markers were also measured.
Moreover, these changes we<1 standard deviation and therefore viewed as not clinically meaningful. As noted earlier, >3SD over normative values were classified as an AE.

[1] = 5 weeks administration, versus placebo
[2] = 5 weeks administration, versus placebo, listed as CBD

C=C(C)[C@@H]1CCC(C)=C[C@H]1c1c(O)cc(CCCCC)cc1O [Cannabidiol, 2-[(1R,6R)-6-Isopropenyl-3-methylcyclohex-2-en-1-yl]-5-pentylbenzene-1,3-diol]
plasma alanine transaminase (ALT) [1]: remained effectively unchanged over time | plasma alkaline phosphatase (ALP) [1]: remained effectively unchanged over time | plasma total bilirubin [1]: remained effectively unchanged over time | plasma aspartate transaminase (AST) [2]: higher in the placebo condition; also recorded: remained effectively unchanged over time | plasma gamma-glutamyl transferase (GGT) [2]: slightly higher; also recorded: remained effectively unchanged over time | size of GGT and AST changes (viewed as not clinically meaningful): < 1 standard deviation
